In patent publication US8163740B2, “6-substituted benzoxazines” (Hoffmann-La Roche Inc., priority 2008, dated 2012):

Biological target: recombinant human 5-HT5A receptor (Homo sapiens, UniProt P47898)
Assay: [3H]LSD radioligand binding assay
Details: [3H]LSD (approximately 1 nM); membranes from HEK-EBNA cells transiently expressing 5-HT5A; Ki by Cheng-Prussoff equation; read-out: Ki
Procedure: A [^3H]LSD radioligand binding assay was used to determine the affinity of the compounds for the recombinant human 5-HT5A receptor, in membranes from transiently (cDNA) expressed 5-HT5A receptors in Human Embryonic Kidney-EBNA (HEK-EBNA) cells. Assay buffer consisted of Tris (50 mM) buffer containing 1 mM EGTA, 10 mM MgCl2 (pH 7.4) and 10 μM pargyline. The binding assay was carried out in 96-well-plates in the presence of [^3H]LSD (approximately 1 nM), approximately 2 μg/well of membrane protein, and 0.5 mg of Ysi-poly-1-lysine SPA beads in a final volume of 200 μl of buffer. Non-specific binding was defined using methiothepin 2 μM. Compounds were tested at 10 concentrations. All assays were conducted in duplicate and repeated at least two times. Assay plates were incubated for 120 min at room temperature before centrifugation. Bound ligand was determined using a Packard Topcount scintillation counter. IC50 values were calculated using a non-linear curve fitting program and Ki values calculated using the Cheng-Prussoff equation.

Chain of recombinant human 5-HT5A receptor (P47898 whole entry): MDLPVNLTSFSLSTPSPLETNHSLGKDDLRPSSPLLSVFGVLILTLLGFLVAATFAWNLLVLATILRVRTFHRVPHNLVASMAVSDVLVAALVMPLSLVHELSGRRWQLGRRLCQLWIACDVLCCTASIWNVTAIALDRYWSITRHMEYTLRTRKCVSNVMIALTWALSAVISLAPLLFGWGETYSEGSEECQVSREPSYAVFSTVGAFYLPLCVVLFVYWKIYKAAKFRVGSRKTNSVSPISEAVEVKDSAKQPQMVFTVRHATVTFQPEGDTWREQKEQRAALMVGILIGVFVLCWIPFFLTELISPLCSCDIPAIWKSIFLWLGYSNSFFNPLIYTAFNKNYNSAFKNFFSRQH

SMILES | Ki [nM]
NCc1ccc2c(c1)COC(N[C@@H]1CCc3ccccc31)=N2 [Example 129, (6-Aminomethyl-4H-benzo[d][1,3]oxazin-2-yl)-(R)-indan-1-yl-amine] | 13.3
COc1cccc2c1C(NC1=Nc3ccc(C#N)cc3CO1)CC2 (racemic) [Example 142, rac-2-(7-Methoxy-indan-1-ylamino)-4H-benzo[d][1,3]oxazine-6-carbonitrile] | 27
O=S(=O)(Nc1ccc2c(c1)COC(NC1CCCCCC1)=N2)C1CC1 [Example 97, Cyclopropanesulfonic acid (2-cycloheptylamino-4H-benzo[d][1,3]oxazin-6-yl)-amide] | 38.6
CN1CCN(S(=O)(=O)Nc2ccc3c(c2)COC(N[C@@H]2CCc4ccccc42)=N3)CC1 [Example 72, 4-Methyl-piperazine-1-sulfonic acid [2-((R)-indan-1-ylamino)-4H-benzo[d][1,3]oxazin-6-yl]-amide] | 28.6
O=S(=O)(Nc1ccc2c(c1)COC(NCCOc1ccccc1)=N2)C1CC1 [Example 108, Cyclopropanesulfonic acid [2-(2-phenoxy-ethylamino)-4H-benzo[d][1,3]oxazin-6-yl]-amide] | 29.1
COc1cccc2c1C(NC1=Nc3ccc([N+](=O)[O-])cc3CO1)CO2 (racemic) [Example 5, rac-(4-Methoxy-2,3-dihydro-benzofuran-3-yl)-(6-nitro-4H-benzo[d][1,3]oxazin-2-yl)-amine] | 368
Cc1ccc(CNC2=Nc3ccc(NC(=O)C4CC4)cc3CO2)o1 [Example 82, Cyclopropanecarboxylic acid {2-[(5-methyl-furan-2-ylmethyl)-amino]-4H-benzo[d][1,3]oxazin-6-yl}-amide] | 11.7
Cc1ccc(CNC2=Nc3ccc(N)cc3CO2)o1 [Example 77, N^2-(5-Methyl-furan-2-ylmethyl)-4H-benzo[d][1,3]oxazine-2,6-diamine] | 13.5
c1csc(CNc2ccc3c(c2)COC(NC2CCCCCC2)=N3)n1 [Example 98, N^2-Cycloheptyl-N^6-thiazol-2-ylmethyl-4H-benzo[d][1,3]oxazine-2,6-diamine] | 19.3
c1c[nH]c(CNc2ccc3c(c2)COC(NC2CCCCCC2)=N3)n1 [Example 105, N^2-Cycloheptyl-N^6-(1H-imidazol-2-ylmethyl)-4H-benzo[d][1,3]oxazine-2,6-diamine] | 31.6
CC(C)N1C2CCC1CC(NCC(=O)Nc1ccc3c(c1)COC(N[C@@H]1CCCc4ccccc41)=N3)C2 (stereo partly drawn) [Example 73, 2-((exo)-8-Isopropyl-8-aza-bicyclo[3.2.1]oct-3-ylamino)-N-{2-[(R)-(1,2,3,4-tetrahydro-naphthalen-1-yl)amino]-4H-benzo[d][1,3]oxazin-6-yl}-acetamide] | 61.3
CN1CCN(CC(=O)Nc2ccc3c(c2)COC(NC2CCCCCC2)=N3)CC1 [Example 93, N-(2-Cycloheptylamino-4H-benzo[d][1,3]oxazin-6-yl)-2-(4-methyl-piperazin-1-yl)-acetamide] | 10.8
Cc1ccc(CNC2=Nc3ccc(NC(=O)CN4CCOCC4)cc3CO2)o1 [Example 85, N-{2-[(5-Methyl-furan-2-ylmethyl)-amino]-4H-benzo[d][1,3]oxazin-6-yl}-2-morpholin-4-yl-acetamide] | 251
O=C(CN1CCOCC1)Nc1ccc2c(c1)COC(NCCOc1ccccc1)=N2 [Example 123, 2-Morpholin-4-yl-N-[2-(2-phenoxy-ethylamino)-4H-benzo[d][1,3]oxazin-6-yl]-acetamide] | 41.4
COCCNCC(=O)Nc1ccc2c(c1)COC(N[C@@H]1CCCc3ccccc31)=N2 [Example 40, 2-(2-Methoxy-ethylamino)-N-{2-[(R)-(1,2,3,4-tetrahydro-naphthalen-1-yl)amino]-4H-benzo[d][1,3]oxazin-6-yl}-acetamide] | 33
O=S(=O)(Nc1ccc2c(c1)COC(NC1CCCCCC1)=N2)c1ccccc1 [Example 100, N-(2-Cycloheptylamino-4H-benzo[d][1,3]oxazin-6-yl)-benzenesulfonamide] | 74.7
CN1CCN(S(=O)(=O)Nc2ccc3c(c2)COC(N[C@@H]2CCCc4ccccc42)=N3)CC1 [Example 71, 4-Methyl-piperazine-1-sulfonic acid {2-[(R)-(1,2,3,4-tetrahydro-naphthalen-1-yl)amino]-4H-benzo[d][1,3]oxazin-6-yl}-amide] | 138
CN(C)S(=O)(=O)Nc1ccc2c(c1)COC(NC1CCOc3ccccc31)=N2 (racemic) [Example 91, rac-N,N-(Dimethyl)-N′-{2-(chroman-4-ylamino)-4H-benzo[d][1,3]oxazin-6-yl}-sulfamide] | 52.5
c1ccc(CNc2ccc3c(c2)COC(NC2CCCCCC2)=N3)cc1 [Example 94, N^6-Benzyl-N^2-cycloheptyl-4H-benzo[d][1,3]oxazine-2,6-diamine] | 63.5

The next molecules have a lower Ki than those just listed; values first:

Ki [nM] | SMILES
7.16 | COc1cccc2c1C(NC1=Nc3ccc(Nc4nccc(C(F)(F)F)n4)cc3CO1)CC2 (racemic) [Example 81, rac-N^2-(7-Methoxy-indan-1-yl)-N^6-(4-trifluoromethyl-pyrimidin-2-yl)-4H-benzo[d][1,3]oxazine-2,6-diamine]
1.18 | c1ccc2c(c1)CC[C@H]2NC1=Nc2ccc(NCc3nccs3)cc2CO1 [Example 89, N^2—(R)-Indan-1-yl-N^6-thiazol-2-ylmethyl-4H-benzo[d][1,3]oxazine-2,6-diamine]
6.05 | COc1ccccc1CNC1=Nc2ccc(N)cc2CO1 [Example 4, N^2-(2-Methoxy-benzyl)-4H-benzo[d][1,3]oxazine-2,6-diamine]
7.83 | COc1cccc2c1C(NC1=Nc3ccc(N)cc3CO1)CO2 (racemic) [Example 6, rac-N^2-(4-Methoxy-2,3-dihydro-benzofuran-3-yl)-4H-benzo[d][1,3]oxazine-2,6-diamine]
4.44 | CS(=O)(=O)Nc1ccc2c(c1)COC(N[C@@H]1CCc3ccccc31)=N2 [Example 78, N-[2-((R)-Indan-1-ylamino)-4H-benzo[d][1,3]oxazin-6-yl]-methanesulfonamide]
2.89 | COc1cccc2c1C(NC1=Nc3ccc(NC(=O)CN4CCN(C)C(CO)C4)cc3CO1)CC2 (stereo not drawn) [Example 116, 2-(3-Hydroxymethyl-4-methyl-piperazin-1-yl)-N-[2-(7-methoxy-indan-1-ylamino)-4H-benzo[d][1,3]oxazin-6-yl]-acetamide]
1.85 | COc1cccc2c1C(NC1=Nc3ccc(NC(=O)C4CC4)cc3CO1)CCC2 (racemic) [Example 23, rac-Cyclopropanecarboxylic acid [2-(8-methoxy-1,2,3,4-tetrahydro-naphthalen-1-ylamino)-4H-benzo[d][1,3]oxazin-6-yl]-amide]
5.11 | CN1CCN(CC(=O)Nc2ccc3c(c2)COC(NCCOc2ccccc2)=N3)CC1 [Example 122, 2-(4-Methyl-piperazin-1-yl)-N-[2-(2-phenoxy-ethylamino)-4H-benzo[d][1,3]oxazin-6-yl]-acetamide]
1.3 | O=C(Nc1ccc2c(c1)COC(NC1CCCCCCC1)=N2)C1CC1 [Example 155, Cyclopropanecarboxylic acid (2-cyclooctylamino-4H-benzo[d][1,3]oxazin-6-yl)-amide]
3.26 | COc1cccc2c1C(NC1=Nc3ccc(NS(=O)(=O)N4CCCCC4)cc3CO1)CC2 (racemic) [Example 62, rac-Piperidine-1-sulfonic acid [2-(7-methoxy-indan-1-ylamino)-4H-benzo[d][1,3]oxazin-6-yl]-amide]
4.37 | COc1cccc2c1C(NC1=Nc3ccc(NC(=O)NC4CCN(C(C)C)CC4)cc3CO1)CO2 (racemic) [Example 14, rac-1-(1-Isopropyl-piperidin-4-yl)-3-[2-(4-methoxy-2,3-dihydro-benzofuran-3-ylamino)-4H-benzo[d][1,3]oxazin-6-yl]-urea]
1.06 | COc1cccc2c1C(NC1=Nc3ccc(NC(=O)C4CC4)cc3CO1)CC2 (racemic) [Example 25, rac-Cyclopropanecarboxylic acid [2-(7-methoxy-indan-1-ylamino)-4H-benzo[d][1,3]oxazin-6-yl]-amide]
7.85 | Nc1ccc2c(c1)COC(N[C@@H]1CCCc3ccccc31)=N2 [Example 33, (R)-N^2-(1,2,3,4-Tetrahydro-naphthalen-1-yl)-4H-benzo[d][1,3]oxazine-2,6-diamine]
6.8 | Fc1ccc2c(c1)CCC2NC1=Nc2ccc(Nc3nccc(C(F)(F)F)n3)cc2CO1 (racemic) [Example 58, rac-N^2-(5-Fluoro-indan-1-yl)-N^6-(4-trifluoromethyl-pyrimidin-2-yl)-4H-benzo[d][1,3]oxazine-2,6-diamine]
7.82 | COc1cccc2c1C(NC1=Nc3ccc(Nc4cccc(C(F)(F)F)n4)cc3CO1)CO2 (racemic) [Example 59, rac-N^2-(4-Methoxy-2,3-dihydro-benzofuran-3-yl)-N^6-(6-trifluoromethyl-pyridin-2-yl)-4H-benzo[d][1,3]oxazine-2,6-diamine]
1.2 | COc1cccc2c1C(NC1=Nc3ccc(N)cc3CO1)CC2 (racemic) [Example 10, rac-N^2-(7-Methoxy-indan-1-yl)-4H-benzo[d][1,3]oxazine-2,6-diamine]
1.43 | COc1cccc2c1C(NC1=Nc3ccc(NC(=O)CN4CCN(C)CC4)cc3CO1)CC2 (racemic) [Example 86, rac-N-[2-(7-Methoxy-indan-1-ylamino)-4H-benzo[d][1,3]oxazin-6-yl]-2-(4-methyl-piperazin-1-yl)-acetamide]
